Like-named read-outs stand apart in the source and are kept apart here.
Key:
[1] = system: AZT-resistant clinical isolates of HIV-1; assay: microbe, parasite or virus in culture; assay type: cell-based; conditions: for Fold-Increase (G-762 to G-691): post-AZT G-691 versus pre-AZT G-762; for Fold-Increase (H112-2 to G-910): post-AZT G-910 versus pre-AZT H112-2; for EC50: mean of 2 to 4 independent tests
Procedure: (§1) The inhibitory effects of PC lipids, non-PC lipid-AZT conjugates, and double-targeting PC lipid-AZT conjugate compounds of the invention on replication of HIV-1 virus in cells was examined using the plaque assay procedure described in Kucera et al. (1990, AIDS Research and Human Retroviruses, 6:491). CEM-SS cells were seeded at 50,000 cells per milliliter in RPMI growth medium as a monolayer in 96-well dishes, inoculated with 50 to 100 plaque forming units of HIV-1 and overlaid with serial dilutions of either PC lipid, non-PC lipid-AZT conjugate, or PC-lipid-AZT conjugate in RPMI-1640 growth medium supplemented with 10% fetal bovine serum. The structures of the tested compounds are described in Table 1. AZT and PC lipids were used as positive controls. […] The cytotoxicity of PC lipids, non-PC lipid-AZT conjugates and double targeting PC lipid-AZT conjugates was assessed using the procedure described in Kucera et al. (1990, AIDS Res. And Human Retrovir., 6:496, and 1998, Antiviral Chemistry and Chemotherapy, 9:160). [drawing 16]
Evaluation of the clinical isolates to the compounds was performed using the plaque assay procedure described herein in Example 1. The matched pairs of clinical isolates were obtained through the AIDS Research and Reference Reagent Program, NIH, Bethesda, Md.

CEM-SS cells = assay: Cytotoxicity (TC50) of the compounds tested for anti-HIV-1 activity; assay type: cell-based, human
Procedure: as §1

HIV-1 = HIV-1 syncytial plaque assay in CEM-SS cells; assay type: cell-based
Procedure: as §1
In the plaque assay, HIV-1 syncytial plaques are seen as large, multicellular foci (10 to 25 nuclei/syncytium) that appear either brown and granular or clear. Because the number of HIV-1 syncytial plaques was correlated with reverse transcriptase (RT) and p24 core antigen activity in the HIV-1 infected cell overlay fluids, the syncytial plaque assay could be used to quantify the amount of infectious virus. Reverse transcriptase activity was assayed according to the procedure described by Poeisz et al. (1980, Proc. Natl. Acad. Sci. U.S.A. 77:7415). The activity of p24 core antigen induced by HIV-1 infection of CEM-SS cells was measured spectrophotometrically using the commercial Coulter enzyme immunoassay (EIA).

[2] = system: HIV-1 persistently infected H9IIIB cells; assay: Induction of defective HIV-1 in persistently infected H9IIIB cells (RT activity after infecting fresh CEM-SS cells); assay type: cell-based; conditions: for DPM-Bkg: RT activity in CEM-SS overlay medium after 7 or 9 days, H9IIIB cells treated with 1.0 μM compound for 14 or 11 days; for % Inhibition: inhibition of RT activity as measure of defective virus formation, 1.0 μM compound, 14 or 11 days
Procedure: HIV-1 persistently infected H9IIIB cells were washed twice to remove extracellular HIV-1, resuspended in fresh growth medium with or without 1.0 μM of compound for a total of 14 days. During the treatment period, the cells were subcultured 1:3 three times a week. In addition, on days 3, 7 and 11, the cells were pelleted to remove extracellular HIV-1 before subculture in fresh growth medium with or without the compound. After 14 or 11 days of treatment, the virus was pelleted (100,000×g, 1 hr, 4 C.) from the overlay medium to remove free compound, resuspended in fresh medium without compound and assayed for RT activity. The virus suspension was normalized to 500,000 RT DPM and used to infect fresh CEM-SS cells. The infected CEM-SS cells were incubated for a total of 7 or 9 days, and the overlay medium was harvested and assayed for induction of RT activity. The % inhibition of RT activity was used as a measure of defective virus formation during the treatment period.

[3] = system: monkey kidney cells (Vero); assay: Cytotoxicity in Vero cell monolayers (cell morphology); assay type: cell-based; conditions: 48 hours at 37° C., lowest concentration changing morphology in at least 25% of the cells; for CC50: read-out: Cytotoxicity (TC50)
Procedure: To measure cytotoxicity of the compounds, the cell monolayers (described above) were treated with a serial concentration of test compound for 48 hours at 37° C. and visually examined after crystal violet staining by light microscopy for changes in cell morphology (cell rounding, shrinking, detachment) compared to an untreated control culture.

[4] = system: herpes simplex virus type 2; assay: Herpes simplex virus type 2 plaque inhibition in Vero cells; assay type: cell-based
Procedure: Proof-of-concept of the antiviral activity of the double-targeting PC lipid-AZT conjugate compounds of the invention with respect to herpes simplex virus type 2 was evaluated and compared with that of PC lipid alone and with acyclovir (positive controls). Serial dilutions of PC lipid, PC lipid-AZT conjugate compound, or acyclovir were evaluated for inhibition of the formation of herpes simplex virus type 2 plaques in Vero cells and EC50 values were calculated from the results obtained. Briefly, the tests for anti-herpes simplex virus (HSV) activity and cytotoxicity of the compounds were performed by seeding 8×10^4 monkey kidney cells (Vero) per ml of D-MEM with 10% fetal bovine serum (FBS) in each well of a 12-well dish. The cultures were incubated at 37° C. to form a complete monolayer. To measure anti-HSV activity and effective concentration50 (EC50) each cell monolayer was infected with HSV diluted in PBS-A containing about 100 plaque forming units (PFU) per 0.1 ml. After virus attachment (1 hr., 37° C.) the infected monolayers were overlaid with E-MEM containing 2% FBS and 0.5% methyl cellulose with or without added serial concentrations of test compound. […] The EC50 values were calculated using a computer generated program.

[5] = post-AZT isolate, patient code G-691, read-out: EC50 Post-AZT G-691
[6] = post-AZT isolate, patient code G-910, read-out: EC50 Post-AZT G-910
[7] = pre-AZT isolate, patient code G-762, read-out: EC50 Pre-AZT G-762
[8] = pre-AZT isolate, patient code H112-2, read-out: EC50 Pre-AZT H112-2
[9] = plaques counted after five days at 37° C., CEM-SS cells, read-out: Anti-HIV-1 Activity (EC50)
[10] = Vero cells, 2 days at 37° C., replicate values in one cell, read-out: Anti-Herpes Simplex Activity (EC50)
[11] = acyclovir in replicate tests, read-out: EC50 against herpes simplex virus type 2

| Compound | Fold-Increase (G-762 to G-691) [1] | Fold-Increase (H112-2 to G-910) [1] | EC50 [1, 5] | EC50 [1, 6] | EC50 [1, 7] | EC50 [1, 8] | CC50 (CEM-SS cells; read-out: Cytotoxicity (TC50)) | EC50 (HIV-1; [9]) | DPM-Bkg [2] | % Inhibition [2] | Cytotoxicity (TC50) [3] | EC50 [4, 10] | CC50 [3] | CC50 (CEM-SS cells) | EC50 [4, 11] | fold increase in AZT-resistance among HIV-1 clinical isolates ([1]; text summary over both isolate pairs) | cytotoxicity (CEM-SS cells) | anti-HIV-1 activity relative to AZT (HIV-1; compared with AZT) | EC50 (HIV-1; read-out: anti-HIV-1 activity) |
| --- | --- | --- | --- | --- | --- | --- | --- | --- | --- | --- | --- | --- | --- | --- | --- | --- | --- | --- | --- |
| CCCCCCCCCCCCSCC(COP(=O)([O-])OCC[N+](C)(C)C)OCCCCCCCCO (centres unmarked) [INK-18, 3-dodeceylthio-2-(8′-hydroxyoctyloxy)propyl phosphophocholine] | 0 | 1.8 | 600 nM | 1040 nM | > 1060 nM | 560 nM | 50 ± 42 µM | 1920 ± 1800 nM | 4195 DPM | 38% | – | – | – | – | – | – | – | – | – |
| CCCCCCCCCCCCSCC(COP(=O)([O-])OCC[N+](C)(C)C)OCCCCCCCCCCOC(=O)CC(=O)OC[C@H]1O[C@@H](n2cc(C)c(=O)[nH]c2=O)C[C@@H]1N=[N+]=[N-] (some centres unmarked) [INK-25] | 2 | 2.5 | 60 nM | 10 nM | 30 nM | 4 nM | 13.6 µM | 20 ± 10 nM | 2140 DPM | 54% | toxic @ 20 | > 20 µM | – | – | – | – | – | – | – |
| CCCCCCCCCCCCSCC(COC(=O)CC(=O)OC[C@H]1O[C@@H](n2cc(C)c(=O)[nH]c2=O)C[C@@H]1N=[N+]=[N-])OC (some centres unmarked) [INK-19] | 13.5 | >55.6 | 1620 nM | > 1700 nM | 120 nM | 30 nM | 6.3 ± 1.1 µM | 6 ± 1 nM | 2508 DPM | 63% | – | > 20 µM | > 20 µM | – | – | – | – | – | – |
| CCCCCCCCCCCCSCC(COP(=O)([O-])OCC[N+](C)(C)C)OCCCCCCCCOCc1ccccc1 (centres unmarked) [INK-17, 3-dodecylthio-2-(8′-benzyloxyoctyloxy)propyl phosphocholine] | 0 | 5.1 | 180 nM | 200 nM | 260 nM | 40 nM | – | 150 ± 130 nM | 2847 DPM | 58% | toxic @ 4 | > 4 µM | – | 49.1 ± 13.2 µM | – | – | – | – | – |
| CCCCCCCCCCCCSCC(COP(=O)([O-])OCC[N+](C)(C)C)OCCCCCCCCCCCCOCc1ccccc1 (centres unmarked) [INK-23] | – | – | – | – | – | – | > 100 µM | > 1460 nM | – | – | – | > 20 µM | > 20 µM | – | – | – | – | – | – |
| CCCCCCCCCCCCSCC(COP(=O)([O-])OCC[N+](C)(C)C)OCCCCCCCCCCCCO (centres unmarked) [INK-24] | 0 | <1.0 | 80 nM | 250 nM | 190 nM | 370 nM | 80.6 ± 6.2 µM | 390 ± 390 nM | 3087 DPM | 33% | – | 13.9 µM | > 20 µM | – | 13.8 µM | – | – | – | – |
| CCCCCCCCCCCCSCC(COP(=O)([O-])OCC[N+](C)(C)C)OCCCCCCCCCCO (centres unmarked) [INK-22] | – | – | – | – | – | – | > 90.5 µM | 390 ± 310 nM | – | – | toxic @ 20 | > 20 µM | – | – | – | – | – | – | – |
| CCCCCCCCCCCCSCC(COP(=O)([O-])OCC[N+](C)(C)C)OCCCCCCCCCCCCOC(=O)CC(=O)OC[C@H]1O[C@@H](n2cc(C)c(=O)[nH]c2=O)C[C@@H]1N=[N+]=[N-] (some centres unmarked) [INK-26] | 20 | 1.5 | 60 nM | 30 nM | 3 nM | 20 nM | 11.6 µM | 20 ± 20 nM | 1793 DPM | 61% | – | – | > 20 µM | – | 12 µM | – | – | – | – |
| CCCCCCCCCCCCSCC(COP(=O)([O-])OCC[N+](C)(C)C)OCCCCCCCCCCOCc1ccccc1 (centres unmarked) [INK-21] | – | – | – | – | – | – | 57.3 ± 10.8 µM | 1500 ± 230 nM | – | – | toxic @ 20 | > 20 µM | – | – | – | – | – | – | – |
| CCCCCCCCCCCCSCC(COP(=O)([O-])OCC[N+](C)(C)C)OCCCCCCCCC(=O)OCC(=O)OC[C@H]1O[C@@H](n2cc(C)c(=O)[nH]c2=O)C[C@@H]1N=[N+]=[N-] (some centres unmarked) [INK-20] | 18.6 | 22.0 | 740 nM | 440 nM | 40 nM | 20 nM | 6.9 ± 0.6 µM | – | 2455 DPM | 64% | toxic @ 20 | > 20 µM | – | – | – | about 20 fold | 6.9 ± 0.6 µM | more than ten-fold higher than AZT | 0.9 nM |

From US7026469B2, “Compositions and methods of double-targeting virus infections and cancer cells” (Wake Forest University School of Medicine, priority 2000, dated 2006)
